Entries after “also recorded” stand apart in the source; their conditions may differ. Read-outs that look alike come from different tables or passages of the source.
Legend:
[1] = biological target: T1, PDEδ (Homo sapiens, UniProt O43924); assay: Covalent modification of PDEδ by MALDI mass spectrometry; format: binding; design: His tag; made in house; host or cells: Escherichia coli Rosetta (BL21DE3), pET plasmids; details: PDEδ 20 µM, compound 60 µM, HEPES pH 7.5, 37 °C; mean ± s.e.m.
Method: The solution was briefly centrifuged before a sample was taken at the designated time for analysis by MALDI. […] Mass spectra were obtained over the m/z range 15,000–25,000 using a Bruker UltrafleXtreme XIAL DI-TOF/TOF mass spectrometer. Percentages of covalent adduct formation were estimated by the relative intensity of the respective peaks in MALDI spectra.
1. Supplementary Figures and Tables
PDEδ (20 µM) was incubated with compounds (60 µM) in HEPES
Percentages of covalent adduct formation were estimated by the relative intensity of the respective peaks in MALDI spectra. Data are presented as mean ± s.e.m.
Apparent pseudo -first order kobs was estimated by percentages of covalent adduct formation at 2 hours by MALDI. Plot of kobs (h-1) against concentration (µM) was fitted by GraphPad […]
Prism Michaelis-Menten model and separate values for kinact and KI were obtained to calculate apparent […]
PDEδ (20 µM) was incubated with
Data are presented as mean ± s.e.m.
HEPES buffer, n = 3 for the rest). One-way ANOVA with matched time-points, with Geisser-

[2] = biological target: UNC119B (Homo sapiens, UniProt A6NIH7); assay: Mass spectrometry analysis of UNC119B adducts after Lys-C digestion; details: 10 eq., overnight at 37 °C; including binding pocket p.E174
[3] = biological target: T1, PDEδ; assay: Competitive fluorescence polarisation assay (FA probe displacement); format: binding; design: His tag; made in house; host or cells: Escherichia coli Rosetta (BL21DE3), pET plasmids; details: PDEδ 40 nM, FA probe 24 nM, room temperature overnight
[4] = biological target: T1, PDEδ; assay: Differential scanning fluorimetry (NanoDSF); format: binding; design: His tag; made in house; host or cells: Escherichia coli Rosetta (BL21DE3), pET plasmids; details: PDEδ 20 µM, compound 60 µM; mean ± s.d., Fig. 2e; read-out: melting temperature shift ΔTm (NanoDSF)
Method: Afterwards, a sample of the solution was cooled down to room temperature and was loaded onto a capillary, followed by the measurement of fluorescence intensities at 350 nm and 330 nm from 20 °C up to 90 °C (with a rate of increment of 1 °C/min) using the Prometheus Panta device (NanoTemper® Technologies, DE).

[5] = Compound stability in aqueous buffers; format: physicochemical
Method: (§1) Compound (1 mM) was incubated with the respective buffers (HEPES 20 mM, 150 mM NaCl, pH = 7.5; 0.2 M sodium acetate buffer, pH = 5.6; 0.2 M sodium citrate buffer, pH = 6.2; 0.2 M potassium phosphate buffer, pH = 7.4, 1 mM EDTA, with or without 10 mM GSH), with 1% DMSO adjusted for all conditions. […] Per cent (%) compound remaining in the solution was estimated by the ratio of areas under the curve, and data plotted were fitted to pseudo-1st kinetics in the calculation of rate constants (k) and half-lives (t1/2), where k is the negative slope of a linear regression of In (% compound remaining) over time. Half-lives (t1/2) in respective buffers and half-lives for GSH adduct formation (t1/2 GSH) were calculated with the following equations:1 t1/2=In2/k 2 kGSH=ktotalconsumptioninphosphatebufferinpresenceofGSH−k(phosphatebufferinabsenceofGSH) 3 t1/2GSH=In2/k(GSH) […]
(§2) a, Percentage (%) of compound remaining was monitored by HPLC-MS and data was fitted to pseudo-first kinetics in calculation of rate constants (k) and half-lives (t1/2) in respective buffers, where k is the negative slope of a linear regression of In (% compound remaining) over time and t 1/2 = In2/k. Initial […]
(§3) Initial GSH concentration =

[6] = GSH adduct formation (stability in the presence of GSH); format: physicochemical; details: phosphate buffer with 10 mM GSH; 10-fold excess of GSH at 10 mM, phosphate buffer pH 7.4, 37 °C; read-out: half-life for GSH adduct formation t1/2 GSH (converted)
Method: as §1, §2, §3

[7] = biological target: T1, PDEδ; assay: Mass spectrometry analysis of PDEδ adducts after Glu-C digestion; format: binding; design: His tag; made in house; host or cells: Escherichia coli Rosetta (BL21DE3), pET plasmids; details: LC-MS/MS, 10:1 compound to protein
Method: For each replicate, 1.5 µg covalent adduct of PDEδ sample in PBS buffer was denatured, reduced, alkylated and digested by Glu-C and desalted, together with a negative control of unbound vehicle-treated PDEδ sample prior to mass spectrometry analysis. […] The final mixture containing 6.5 M guanidine hydrochloride was heated at 95 °C for 15 min. Subsequently, after cooling, 0.5 µl of a 50 mM dithiothreitol (DTT, cas 3483-12-3, Gerbu Biotechnik, #1008-100 g) solution was added. […] . Samples were incubated at 37 °C overnight with shaking at 400 rpm, protected from light. […] Desalting was carried out with stage tips with C18 extraction discs (Empore^TM high performance extraction discs, 47 mm, 3 M Bioanalytical Technologies #2215). Each stage tip, which consists of two stacked layers of C18 discs, was activated with methanol (100 µl), washed once with buffer B (100 µl, 0.1% formic acid, 80% acetonitrile), and twice with buffer A (100 µl/time, 0.1% formic acid). After sample loading and washing with buffer A once, the desalted sample was eluted with buffer B (20 µl/sample) and centrifuged at 500×g at room temperature for 5 min. Eluted samples were then dried in a SpeedVac at 30 °C.
Data evaluation was performed using MaxQuant software (v.2.2.0.0)[52]. […] Cleavages by Glu-C were analysed based on the enzyme that was used for digestion. […]

[8] = biological target: PDEδ; details: previously developed PDEδ inhibitor chemotypes, Fig. 1b; read-out: KD (reported binding affinity); cited from earlier work
[9] = test system: SW480 cells; assay: Real-time cell analysis (Incucyte) of proliferation; format: cell-based, human
Method: (§4) Real-time cell analysis (RTCA) was conducted using an Incucyte S3 live-cell analysis system (Sartorius AG, Germany). […] Following attachment overnight, the medium was replaced with fresh medium containing test compounds, with all conditions adjusted to contain 0.5% DMSO. […] Phase-contrast images (2 images per well) were automatically captured at 2-h intervals until control wells (DMSO-treated) reached full confluency. Cell growth was quantified using the instrument’s integrated Basic Analyser module by applying a confluence mask to calculate the percentage of phase area confluence. […] Dose-response curves were generated and fitted via four-parameter variable slope nonlinear regression to determine cellular IC₅₀ values.

[10] = test system: MIA PaCa-2 cells; assay: as above; format: cell-based, human
Method: as §4

[11] = test system: PA-TU-8902 cells; assay: as above; format: cell-based, human
Method: as §4

[12] = test system: NCI-H358 cells; assay: as above; format: cell-based, human; details: read-out: cellular IC50
Method: as §4

[13] = test system: BxPC-3 cells; assay: as above; format: cell-based, human
Method: as §4

[14] = test system: panel of human cell lines; assay: Cytotoxicity screening in a panel of human cell lines; format: cell-based; details: concentrations up to 25 µM
Method: Real-time cell analysis (RTCA) was conducted using an Incucyte S3 live-cell analysis system (Sartorius AG, Germany). Adherent cell lines were seeded at 5 × 10³ cells per well in 96-well plates containing 100 µl of culture medium and incubated overnight at 37 °C with 5% CO₂. Following attachment overnight, the medium was replaced with fresh medium containing test compounds, with all conditions adjusted to contain 0.5% DMSO. […] Phase-contrast images (2 images per well) were automatically captured at 2-h intervals until control wells (DMSO-treated) reached full confluency. Cell growth was quantified using the instrument’s integrated Basic Analyser module by applying a confluence mask to calculate the percentage of phase area confluence. For dose-response assessment, confluence values at 72 h post-treatment were normalised to the DMSO control and analysed using GraphPad Prism 9.5.1 (GraphPad Software, USA). Dose-response curves were generated and fitted via four-parameter variable slope nonlinear regression to determine cellular IC₅₀ values.
representative of biological replicates n = 3.
comet images for each condition were shown.
time live-cell imaging by Incucyte.
Source data are provided as […]

[15] = test system: Rheb localisation in PA-TU-8902 cells; assay: Immunofluorescence staining of Rheb; format: cell-based, human; details: 5 µM, overnight
Method: Immunostaining: compound-treated PA-TU-8902 cells were washed once with cold PBS, fixed with 3.7% paraformaldehyde in PBS by incubation at room temperature for 10 min and permeabilised with 0.3% Triton X-100 in PBS by incubation at room temperature for 15 min. […] After washing with PBS-T three times, PBS-incubated cells were imaged with Observer Z1 (Carl Zeiss, Germany) with a 63× oil objective.

[16] = Homo sapiens, 72 h, read-out: cellular IC50

Cc1ccc(-n2nc3c(=O)n(CCCC(=O)NCCCCCBr)nc(C)c3c2C)cc1 [2d]
% covalent modification at 24 h [1]: 8 ± 5%

CCOC(=O)N1CCC(Nc2c(NCCCBr)c(=O)c2=O)CC1 [compound 7]
covalent modification of acid sites in UNC119B [2]: covalently modified

Cc1ccc(-n2nc3c(=O)n(CCCCS(=O)(=O)N(CCCCCCCCl)CC4CCNCC4)nc(C)c3c2C)cc1 [5h]
IC50 [3]: 0.0137 ± 0.0034 µM | ΔTm at 60 µM [4]: 11.3 ± 0.6 °C

Cc1ccc(-n2nc3c(=O)n(CCCCS(=O)(=O)N(CCCCCBr)CC4CCNCC4)nc(C)c3c2C)cc1 [4b]
% covalent modification at 24 h [1]: 23 ± 3%

Cc1ccc(-n2nc3c(=O)n(CCCCS(=O)(=O)N(CCCCCCCBr)CC4CCNCC4)nc(C)c3c2C)cc1 [5e]
half-life at 1 mM ([5]; HEPES buffer, pH 7.5, 37 °C, compound 1 mM, read-out: half-life t1/2 in HEPES buffer (converted)): 85 h | half-life at 1 mM ([5]; acetate buffer, pH 5.6, 37 °C, read-out: half-life t1/2 in acetate buffer (converted)): 43 h | IC50 [3]: 0.017 ± 0.0061 µM | half-life at 1 mM [6]: 180 days | % covalent modification at 24 h [1]: 62 ± 10% | site of covalent modification in PDEδ [7]: either at p.E88 or p.E89 | ΔTm at 60 µM [4]: 14.7 ± 1.2 °C

Cc1ccc(-n2nc3c(=O)n(CCCC(=O)N(CCCCCBr)CC4CCNCC4)nc(C)c3c2C)cc1 [3d]
% covalent modification at 24 h [1]: 11 ± 4%

Cc1ccc(-n2nc3c(=O)n(CCCC(=O)N(CCCCCCl)CC4CCNCC4)nc(C)c3c2C)cc1 [3b]
% covalent modification at 24 h [1]: not reactive enough to yield any detectable covalent adduct

Cc1ccc(-n2nc3c(=O)n(CCCC(=O)N(CCCCl)CC4CCNCC4)nc(C)c3c2C)cc1 [3a]
% covalent modification at 24 h [1]: not reactive enough to yield any detectable covalent adduct

Cc1ccc(-n2nc3c(=O)n(CCCC(=O)N(CCCBr)CC4CCNCC4)nc(C)c3c2C)cc1 [3c]
% covalent modification at 24 h [1]: not reactive enough to yield any detectable covalent adduct

Cc1c(Cl)cccc1NC(=O)CCCn1nc(C)c2c(C)n(-c3ccccc3)nc2c1=O [Deltazinone derivative]
Kd [8]: 0.005 ± 0.002 µM

Cc1ccc(-n2nc3c(=O)n(CCCCS(=O)(=O)N(CCc4cccc(CCCl)c4)CC4CCNCC4)nc(C)c3c2C)cc1 [6b]
IC50 [3]: 0.0082 ± 0.004 µM | IC50 [9, 16]: > 50 µM | IC50 ([10]; Homo sapiens, MIA PaCa-2, 72 h, read-out: cellular IC50): 10.9 ± 1.9 µM | IC50 ([11]; Homo sapiens, PaTu 8902, PA-TU-8902, 72 h, read-out: cellular IC50): 12 ± 1 µM | IC50 ([12]; Homo sapiens, NCI-H358, 72 h, NCI-H358, 72 h): 6.8 ± 1.9 µM | IC50 ([12]; NCI-H358, 72 h): 6.3 ± 1.9 µM | IC50 [13, 16]: > 26 µM | general cytotoxicity [14]: not observed | ΔTm at 60 µM [4]: 11.1 ± 0.6 °C

Cc1ccc(-n2nc3c(=O)n(CCCC(=O)NCC(C)c4ccccc4)nc(C)c3c2C)cc1 (centres unmarked) [Deltazinone 1, reference compound]
cellular Rheb distribution [15]: loss of inhibition for PDEδ-Rheb interaction | growth inhibition ([9]; doses up to 50 µM): little or no growth inhibition | % Growth rate of MIA PaCa-2 cells ([10]; 25 µM): 96% | % Growth rate of MIA PaCa-2 cells ([10]; 50 µM): 80% | growth inhibition ([10]; MIA PaCa-2, doses up to 50 µM): little or no growth inhibition; also recorded: no anti-proliferative activity | % Growth rate of PA-TU-8902 cells ([11]; 25 µM): 29% | % Growth rate of PA-TU-8902 cells ([11]; 50 µM): 23% | IC50 ([12]; Homo sapiens, NCI-H358, 72 h): 0.14 ± 0.11 µM | growth inhibition ([13]; doses up to 50 µM): little or no growth inhibition

Reference: article PMC12864978, “Covalent modification of a glutamic acid inspired by HaloTag technology” (Nature Communications, 2026)
